Data published in patent US7385088B1, “Compounds from Antrodia camphorata” (Golden Biotechnology Corporation, priority 2007, dated 2008).
≈ marks a conversion by molar mass, not a printed value.

Assays:
Format in all cases: cell-based
HepG2 = assay: MTT survival assay, hepatic cancer cells Hep G2; details: Homo sapiens, 48 hours
Text: (§1) Therefore Antroquinonol B and Antroquinonol C can be used in inhibiting cancer cell growth of breast cancer, lung cancer, hepatic cancer, and prostate cancer, which can further be applied in cancer treatment of breast cancer, lung cancer, hepatic cancer, prostate cancer and the like. The details of the examples are described as follows: MTT assay is commonly used to determine cell proliferation, percent of viable cells, and cytotoxicity. 3-[4,5-dimethylthiazol-2-yl]2,5-diphenyltetrazolium bromide (MTT) is a yellow dye, which can be absorbed by the living cells and be reduced to purplish blue formazan crystals by succinate tetrazolium reductase in mitochondria. Formazan formation can therefore be used to assess and determine the survival rate of cells. The NCI anti-cancer drug screen model was employed to test the anti-cancer effect of the Antroquinonol B and Antroquinono C in the present invention. The Antroquinonos isolated from example 1 were added into the culture media of human hepatic-cancer cells, Hep 3B or Hep G2, for tumor cell survival assay. Hepatic-cancer cells Hep 3B (BCRC 60434) and Hep G2 (BCRC 60025), were obtained from the Bioresources Collection and Research Center (BCRC) of the Food Industry Research and Development Institute. […] The plates were read on an ELISA reader at wavelength of 570 nm to determine the survival rates.

Hep3B = assay: MTT survival assay, hepatic cancer cells Hep 3B; details: Homo sapiens, 48 hours
Text: as §1

A549 = assay: MTT survival assay, lung cancer cells A549; details: Homo sapiens, 48 hours
Text: Therefore Antroquinonol B and Antroquinonol C can be used in inhibiting cancer cell growth of breast cancer, lung cancer, hepatic cancer, and prostate cancer, which can further be applied in cancer treatment of breast cancer, lung cancer, hepatic cancer, prostate cancer and the like. The details of the examples are described as follows: MTT assay is commonly used to determine cell proliferation, percent of viable cells, and cytotoxicity. 3-[4,5-dimethylthiazol-2-yl]2,5-diphenyltetrazolium bromide (MTT) is a yellow dye, which can be absorbed by the living cells and be reduced to purplish blue formazan crystals by succinate tetrazolium reductase in mitochondria. Formazan formation can therefore be used to assess and determine the survival rate of cells. The NCI anti-cancer drug screen model was also employed to test the anti-lung cancer effect of the Antroquinonol B and Antroquinonol C in the present invention. The Antroquinonols isolated from example 1 were added into the culture media of human lung cancer cell A549 with the abovementioned MTT assay to analyze lung cancer cell survival rates. Human lung cancer cell A549 was obtained from the Bioresources Collection and Research Center (BCRC) of the Food Industry Research and Development Institute with an accession number of BCRC 60074. […] The plates were read on an ELISA reader at wavelength of 570 nm to determine the survival rates.

MCF-7 = assay: MTT survival assay, breast cancer cells MCF-7; details: Homo sapiens, MCF7, estrogen-dependent breast cancer cells, 48 hours
Text: (§2) Therefore Antroquinonol B and Antroquinonol C can be used in inhibiting cancer cell growth of breast cancer, lung cancer, hepatic cancer, and prostate cancer, which can further be applied in cancer treatment of breast cancer, lung cancer, hepatic cancer, prostate cancer and the like. The details of the examples are described as follows: The NCI anti-cancer drug screen model was adopted to test the anti-cancer effect of the isolated compounds from example 1 in the present invention. The isolated Antroquinonol B and Antroquinonol C from example 1 were added into the culture media of human breast-cancer cells, MCF-7 or MDA-MB-231, to test for tumor cell survival. This survival assay was carried out with the widely known MTT (3-[4,5-dimethylthiazol-2-yl]2,5-diphenyltetrazolium bromide) assay. MCF-7 cell line is originated from primary breast cancer cells (early stage), sensitive to estrogen and therefore is estrogen-dependent, while MDA-MB-231 is insensitive to estrogen and therefore is estrogen-independent, which is a difficult tumor with a low survival rate. MTT assay is commonly used to determine cell proliferation, percent of viable cells, and cytotoxicity. […] The plates were read on an ELISA reader at wavelength of 570 nm to determine the survival rates.

MDA-MB-231 = assay: MTT survival assay, breast cancer cells MDA-MB-231; details: Homo sapiens, estrogen-independent breast cancer cells, 48 hours
Text: as §2

LNCaP = assay: MTT survival assay, prostate cancer cells LNCaP; details: Homo sapiens, androgen-dependent prostate cancer cells, 48 hours
Text: (§3) Therefore Antroquinonol B and Antroquinonol C can be used in inhibiting cancer cell growth of breast cancer, lung cancer, hepatic cancer, and prostate cancer, which can further be applied in cancer treatment of breast cancer, lung cancer, hepatic cancer, prostate cancer and the like. The details of the examples are described as follows:
(§4) MTT assay is commonly used to determine cell proliferation, percent of viable cells, and cytotoxicity. 3-[4,5-dimethylthiazol-2-yl]2,5-diphenyltetrazolium bromide (MTT) is a yellow dye, which can be absorbed by the living cells and be reduced to purplish blue formazan crystals by succinate tetrazolium reductase in mitochondria. Formazan formation can therefore be used to assess and determine the survival rate of cells.
(§5) The NCI anti-cancer drug screen model was also employed to test the anti-cancer effect of the Antroquinonols in the present invention. Antroquinonol B and Antroquinonol C isolated from example 2 were added into the culture media of human prostate cancer cells, LNCaP or DU-145, and prostate cancer cell survival rates were analyzed with the abovementioned MTT assay. […]
(§6) The human prostate-cancer cells, LNCaP and DU-145, were cultivated in media containing fetal calf serum for 24 hours. […] The plates were read on an ELISA reader at wavelength of 570 nm to determine the survival rates.

DU-145 = assay: MTT survival assay, prostate cancer cells DU-145; details: Homo sapiens, androgen-independent prostate cancer cells, 48 hours
Text: as §3, §4, §5, §6

| SMILES | IC50 (HepG2) | IC50 (Hep3B) | IC50 (A549) | IC50 (MCF-7) | IC50 (MDA-MB-231) | IC50 (LNCaP) | IC50 (DU-145) |
| --- | --- | --- | --- | --- | --- | --- | --- |
| COC1=C(OC)[C@H](O)[C@H](C/C=C(\C)CC/C=C(/C)C/C=C/C(C)(C)OC)[C@@H](C)C1=O [Antroquinonol C] | 5.12 mg/L (≈ 12.2 µM) | 1.32 mg/L (≈ 3.14 µM) | 8.21 mg/L (≈ 19.5 µM) | 1.17 mg/L (≈ 2.78 µM) | 21.9 mg/L (≈ 52.1 µM) | 8.72 mg/L (≈ 20.7 µM) | 12.2 mg/L (≈ 29 µM) |
| COC1=C(OC)[C@H](O)[C@H](C/C=C(\C)CC/C=C(/C)C/C=C/C(C)(C)O)[C@@H](C)C1=O [Antroquinonol B] | 3.32 mg/L (≈ 8.17 µM) | 1.21 mg/L (≈ 2.98 µM) | 11.9 mg/L (≈ 29.3 µM) | 1.94 mg/L (≈ 4.77 µM) | 8.72 mg/L (≈ 21.4 µM) | 5.67 mg/L (≈ 13.9 µM) | 10.1 mg/L (≈ 24.9 µM) |
